Like-named read-outs stand apart in the source and are kept apart here.
Key:
[1] = assay type: in vitro ADME, human
Description: Sci. 75, 1094 (1986). […] All formulations were studied in triplicate.
Example 39 was repeated with 1% Diclofenac gel, with and without compound of Example 21, was evaluated. The aliquots were analyzed by U.V. Spectrophotometry and average cumulative amount of drug permeating over 24 hours was calculated.

[2] = patch, 5% ES, control without enhancer; receptor ethanol/saline (3:7)
Description: The compounds of the present invention were tested in vitro as penetration enhancers according to the procedure outlined below. The penetration enhancers were formulated with pharmacologically active agents in creams and patches.
Human stratum corneum was isolated from full thickness human skin as described by Bronaugh et. al., J. Pharm. […] The skin was placed between the donor and the receptor compartments of diffusion cells in such a way that the dermal side of the skin faced the receptor compartment which was filled with normal saline (pH 7.2-7.4) or appropriate releasing media. The stratum corneum was equilibrated at 37° C. overnight prior to the application of a topical formulation or a transdermal patch. All formulations were studied in triplicate.
(§4) The entire contents of the receptor compartment were removed at specific time intervals for duration of the study period and replenished with fresh saline.
Procedure of Example 39 was repeated with the following 17B-Estradiol (ES) patch formulations. Normal saline in the receptor compartment was replaced by ethanol/saline (3:7).

[3] = Penetration of hydrocortisone through hairless mouse skin in diffusion cells; assay type: in vitro ADME, hairless mice; settings: for % Penetration (hydrocortisone): 1% hydrocortisone, 2% 1,2-propanediol, 2% enhancer, average for two cells; for penetration enhancing properties as compared to the control (hydrocortisone): in words
Description: The compounds of Examples 8 and 13 were tested as penetration enhancing agents according to the procedure below:
(§1) The skin was incubated at 37° C. and the ambient humidity.
(§2) 100 microliters of the solution containing 1 mg of test drug was applied to the epidermal surface within the donor compartment. The entire contents from the 4.2 ml receptor compartment bathing the corium were removed for analysis at 5 or 6, 12 and 24 hours intervals. In each case, the receptor compartment was refilled with 4.2 ml of fresh normal saline.
(§3) The aliquots removed after 5 or 6, 12 and 24 hours were analyzed by HPLC using a C-18 reverse phase column.

[4] = Penetration of 5-fluorouracil through hairless mouse skin in diffusion cells; assay type: in vitro ADME, hairless mice; settings: for % Penetration (5-Fluorouracil): 1% 5-Fluorouracil, 2% enhancer
Description: as §1, §2, §3
The compounds of Examples 8 was tested as penetration enhancers according to the procedure outlined under Example 49.

[5] = patch, 3% PG, control without enhancer, receptor ethanol/saline (3:7)
Description: The skin was placed between the donor and the receptor compartments of diffusion cells in such a way that the dermal side of the skin faced the receptor compartment which was filled with normal saline (pH 7.2-7.4) or appropriate releasing media. The stratum corneum was equilibrated at 37° C. overnight prior to the application of a topical formulation or a transdermal patch. All formulations were studied in triplicate.
as §4
Procedure of Example 39 was repeated with the following two sets of Progesterone (PG) patch formulations. Normal saline in the receptor compartment was replaced with ethanol/saline (3:7).

[6] = Examples 51-62 repeated with other penetration enhancers; comparison as penetration enhancing agents; settings: in words
Hygroscopicity = assay type: physicochemical
Description: 34 g (127 mmoles) 1-(2-Hyrdoxyethyl)-2-undecyl-2-imidazoline was dissolved in 300 ml of hexane and 8.5 g […] of acetic acid in 50 ml of hexane were reacted. The precipitate was filtered and then dried at 40°-50° C. under high vacuum for 5 hours. Yield 40.7 g (97.8%).

## O=C(O)Cc1ccccc1Nc1c(Cl)cccc1Cl [Diclofenac, reference compound]
[1]
  Average Cumulative Amount of Diclofenac in Micrograms permeating over 24 hours: 106.7 ± 33.5 Micrograms

## C[C@]12CC[C@@H]3c4ccc(O)cc4CC[C@H]3[C@@H]1CC[C@@H]2O [ES, 17B-Estradiol]
[2]
  Average Cumulative Amount of ES in Micrograms Permeating over 51 Hours: 30.90 ± 1.00 Micrograms

## CCCCCCCCCCCC1=NC(C)(C)CO1 [Example 8, 4,4-dimethyl-2-undecyl-2-oxazoline]
[3]; 6 hrs
  % Penetration (hydrocortisone): 16.1%
[3]; 12 hrs
  % Penetration (hydrocortisone): 28.2%
[3]; 24 hrs
  % Penetration (hydrocortisone): 49.1%
[3]
  penetration enhancing properties as compared to the control (hydrocortisone): far superior penetration enhancing properties
[4]; 6 hrs
  % Penetration (5-Fluorouracil): 59.2%
[4]; 12 hrs
  % Penetration (5-Fluorouracil): 60.3%
[4]; 24 hrs
  % Penetration (5-Fluorouracil): 60.5%
[4]; in words
  penetration enhancement compared to the control (5-Fluorouracil): superior to the control

## CC(=O)[C@H]1CC[C@H]2[C@@H]3CCC4=CC(=O)CC[C@]4(C)[C@H]3CC[C@]12C [PG, Progesterone]
[5]; SET A
  Average Cumulative Amount of PG in Micrograms Permeating over 51 Hours: 176.3 ± 92.0 Micrograms
[5]; SET B
  Average Cumulative Amount of PG in Micrograms Permeating over 51 Hours: 25 ± 17 Micrograms

## CCCCCCCCCCC1COC(C(F)(F)F)=N1 (centres unmarked) [Example 21, 4-Decyl-2-trifluoromethyl-2-oxazoline]
[1]
  permeation of Diclofenac through human skin compared to control: increases the permeation
[6]
  penetration enhancing, compared with the prior art and the other examples: significantly superior penetration enhancing agents

## CCCCCCCCCCCC1=NC(C)(CO)CO1 (centres unmarked) [Example 13, 4-hydroxymethyl-4-methyl-2-undecyl-2-oxazoline]
[3]; 6 hrs
  % Penetration (hydrocortisone): 8.8%
[3]; 12 hrs
  % Penetration (hydrocortisone): 17.3%
[3]; 24 hrs
  % Penetration (hydrocortisone): 34.9%
[3]
  penetration enhancing properties as compared to the control (hydrocortisone): far superior penetration enhancing properties

## CCCCCCCCCCCC1=NCCN1CCO [Example 37, 1-(2-Hyrdoxyethyl)-2-undecyl-2-imidazoline acetate]
Hygroscopicity
  behaviour upon absorbing moisture: hydrated to a gel upon absorbing moisture
  hygroscopicity (hydroscopic [sic]): hydroscopic

Source: patent US5030629A, “Compositions and method comprising heterocyclic compounds containing two heteroatoms as membrane penetration enhancers” (priority 1989, dated 1991)
